Source: patent US20040126325A1, “Medicinal aerosol solution formulation products with improved chemical stability” (priority 2002, published 2004)

Experiments:
[1] = Stability of Budesonide solution formulations: recovery of budesonide after storage; assay type: physicochemical
Procedure: Cans of Budesonide in solution according to the following formulation were manufactured: […]
Budesonide 400 mg (200 mcg/shot)
Anodized and lacquered cans and non ethanol extracted valves were utilized. The cans were put on stability at 50° C. (inverted)
Cans with the same formulation were prepared and in this case ethanol extracted valves were utilized.

[2] = Stability of Budesonide solution formulations: determination of degradation products (related substances); assay type: physicochemical
Procedure: Two cans of anodized aluminum prepared as per example 2 were submitted to the determination of degradation products of the active ingredient.
It was noticed in this way that after a lag time of 6 months at 40° C. the degradation rate increases with the same pattern seen in the first example. […] An explanation of the process is that peroxides may leach into the solution after a while, thus starting a radicalic degradation of Budesonide.

Degradation observed ([1]; anodized and lacquered cans, non ethanol extracted valves, 50° C. inverted): high degree of degradation
Stability of the solution formulation ([1]; ethanol extracted valves, compared with non extracted valves (Example 1)): much higher stability
Lag time after which the degradation rate increases ([2]; 40° C., anodized aluminum cut edge cans, ethanol extracted valves, inverted, does not occur if stored upright): 6 months
Stability of the solution ([2]; finishing of the cans changed from cut edge to rolled neck): greatly increased
SMILES: CCCC1O[C@@H]2C[C@H]3[C@@H]4CCC5=CC(=O)C=C[C@]5(C)[C@H]4[C@@H](O)C[C@]3(C)[C@]2(C(=O)CO)O1 (stereo partly shown) [Budesonide]
